According to US20260174858A1, “TARGETING THE m6A MRNA DEMETHYLASE FTO” (University of Virginia Patent Foundation, priority 2022, published 2026):
d = 2'-deoxy (DNA); r = 2'-OH (RNA); {P} = phosphate

System: mouse BMDMs
Assay: VEGFA release in mouse BMDMs (ELISA)
Type: cell-based
Details: ELISA
Description: Primary WT or mutant mouse bone marrow derived macrophages (BMDMs) were isolated as previously described (4). BMDMs were cultured in IMDM (Gibco) basal medium containing 10% fetal bovine serum (FBS), 30% L929 supernatants, nonessential amino acids, sodium pyruvate, 2-mercaptoethanol, and antibiotics. THP-1 cells were cultured in RPMI 1640 medium with 10% FBS and antibiotics. Human RPE cells were isolated as previously described and cultured in DMEM medium with 10% FBS and antibiotics. All cells were maintained at 37° C. in a 5% CO2 environment.
The RPE-choroid complex was isolated from mouse eyes on day 3 after laser injury and treatment with FTO inhibitor or vehicle. Eye tissues were lysed by sonication with immunoprecipitation assay (RIPA) buffer (Sigma-Aldrich, R0278, USA) containing protease inhibitor (Sigma-Aldrich, 11836170001, USA), on ice for 15 minutes. The lysate was centrifuged at 20,000×g for 15 minutes at 4° C., and total protein in the lysates was quantified using the Thermo Scientific™ Pierce™ BCA™ Protein Assay (Fisher Scientific, PI23225, USA). VEGFA protein levels in the supernatants were measured by VEGF DuoSet ELISA (R&D Systems, DY493, USA), following the manufacturer's instructions. Mouse BMDMs or human THP-1 cells (5×10^5 cells per well) were plated into six-well plates in complete medium and allowed to adhere overnight. Cells were then incubated for 24 hours in the absence or presence of various doses of FTO inhibitor or METTL3 inhibitors (STM2457, Selleck Chemicals). […] The siRNAs (siFto: 5′-P.G.A.G.G.A.U.C.C.A.A.G.G.C.A.A.A.G.A.U.dT.dT 3′ (SEQ ID NO: 38); siCtrl: 5′-P.U.A.A.G.G.C.U.A.U.G.A.A.G.A.G.A.U.dT.dT 3′; SEQ ID NO: 39), were designed and synthesized by GE Healthcare Dharmacon, were transfected twice with BMDMs by using DharmaFECT 4 Transfection Reagent (Dharmacon, T-2004, USA). VEGFA levels in the supernatants were measured by mouse or human VEGF DuoSet ELISA (R&D Systems, DY493 or DY293B, USA), following the manufacturer's instructions.

Substance	VEGFA release after Fto knockdown (BMDMs transfected with siRNA targeting Fto vs control)	VEGFA release with METTL3 inhibitor (various doses, 24 hours)
siFto: siFto: 5′-P.G.A.G.G.A.U.C.C.A.A.G.G.C.A.A.A.G.A.U.dT.dT 3′ (SEQ ID NO: 38), Dharmacon (sense GAGGAUCCAAGGCAAAGAUTT; sugars from the 5' end r19 d2, 5' {P}, backbone not given here)	significantly dampened macrophage mediated VEGFA release	–
STM2457	–	dose-dependent increase in VEGFA release
